Assay results reported in ChEMBL document CHEMBL1201861, “Genomics of Drug Sensitity in Cancer screening data, Wellcome Trust Sanger Institute”.
pIC50: −log10 of the molar value.

Experiments:
CP67-MEL = experiment: SANGER: Inhibition of human CP67-MEL cell growth in a cell viability assay.; assay type: functional, cell-based
KP-N-RT-BM-1 = experiment: SANGER: Inhibition of human KP-N-RT-BM-1 cell growth in a cell viability assay.; assay type: functional, cell-based
L-540 = experiment: cells; assay type: functional, cell-based, Homo sapiens; conditions: Homo sapiens, L-540;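 also: growth inhibition of the human L-540 cell line, read out with a viability assay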
Description: SANGER: Inhibition of human L-540 cell growth in a cell viability assay.

LC-1F = experiment: cells; assay type: functional, cell-based, Homo sapiens; conditions: Homo sapiens, LC-1F;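 also: growth inhibition of human LC-1F cells, read out with a cell viability assay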
Description: SANGER: Inhibition of human LC-1F cell growth in a cell viability assay.

NB7 = experiment: cells; assay type: functional, cell-based, Homo sapiens;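 also: growth inhibition of NB7 cells, read out with a cell viability assay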
Description: SANGER: Inhibition of human NB7 cell growth in a cell viability assay.

NCI-H1436 = experiment: cells; assay type: functional, cell-based, Homo sapiens; conditions: Homo sapiens, NCI-H1436;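 also: growth suppression of human NCI-H1436 cells, determined with a cell viability readout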
Description: SANGER: Inhibition of human NCI-H1436 cell growth in a cell viability assay.

SKM-1 = experiment: SANGER: Inhibition of human SKM-1 cell growth in a cell viability assay.; assay type: functional, cell-based
ST486 = experiment: SANGER: Inhibition of human ST486 cell growth in a cell viability assay.; assay type: functional, cell-based; conditions: Homo sapiens, ST486
CESS = experiment: SANGER: Inhibition of human CESS cell growth in a cell viability assay.; assay type: functional, cell-based; conditions: Homo sapiens, CESS
DK-MG = experiment: cells; assay type: functional, cell-based, Homo sapiens;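 also: growth inhibition of DK-MG cells, read out with a cell viability assay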
Description: SANGER: Inhibition of human DK-MG cell growth in a cell viability assay.

Detroit 562 = experiment: cells; assay type: functional, cell-based, Homo sapiens;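 also: growth inhibition of human Detroit 562 cells, read out by a cell viability assay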
Description: SANGER: Inhibition of human Detroit562 cell growth in a cell viability assay.

DoTc2-4510 = experiment: cells; assay type: functional, cell-based, Homo sapiens
EFO-21 = experiment: cells; assay type: functional, cell-based, Homo sapiens;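 also: growth inhibition of EFO-21 cells measured with a viability assay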
Description: SANGER: Inhibition of human EFO-21 cell growth in a cell viability assay.

EPLC-272H = experiment: cells; assay type: functional, cell-based, Homo sapiens
Description: SANGER: Inhibition of human EPLC-272H cell growth in a cell viability assay.

H9 = experiment: cells; assay type: functional, cell-based, Homo sapiens
Description: SANGER: Inhibition of human H9 cell growth in a cell viability assay.

HEC-1 = experiment: cells; assay type: functional, cell-based, Homo sapiens;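 also: growth inhibition of the cell line, read out with a cell viability assay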
Description: SANGER: Inhibition of human HEC-1 cell growth in a cell viability assay.

HGC-27 = experiment: cells; assay type: functional, cell-based, Homo sapiens;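 also: growth inhibition of human HGC-27 cells, read out in a cell viability assay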
Description: SANGER: Inhibition of human HGC-27 cell growth in a cell viability assay.

HSC-3 = experiment: cells; assay type: functional, cell-based, Homo sapiens
Description: SANGER: Inhibition of human HSC-3 cell growth in a cell viability assay.

J82 = experiment: cells; assay type: functional, cell-based, Homo sapiens;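 also: growth inhibition of J82 cells, read out with a cell viability assay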
Description: SANGER: Inhibition of human J82 cell growth in a cell viability assay.

KYSE-140 = experiment: cells; assay type: functional, cell-based, Homo sapiens;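 also: cell viability assay measuring growth inhibition in human KYSE-140 cells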
Description: SANGER: Inhibition of human KYSE-140 cell growth in a cell viability assay.

MIA PaCa-2 = experiment: cells; assay type: functional, cell-based, Homo sapiens;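 also: growth inhibition of MIA PaCa-2 cells, read out with a cell viability assay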
Description: SANGER: Inhibition of human MIA-PaCa-2 cell growth in a cell viability assay.

MeWo = experiment: cells; assay type: functional, cell-based, Homo sapiens;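 also: growth inhibition of MeWo cells, determined by a cell viability readout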
Description: SANGER: Inhibition of human Mewo cell growth in a cell viability assay.

NCI-H1693 = experiment: cells; assay type: functional, cell-based, Homo sapiens;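 also: growth inhibition of the human cell line, read out with a cell viability assay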
Description: SANGER: Inhibition of human NCI-H1693 cell growth in a cell viability assay.

NCI-H1792 = experiment: cells; assay type: functional, cell-based, Homo sapiens;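 also: growth inhibition of human NCI-H1792 cells, read out as cell viability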
Description: SANGER: Inhibition of human NCI-H1792 cell growth in a cell viability assay.

NCI-H1975 = experiment: cells; assay type: functional, cell-based, Homo sapiens
Description: SANGER: Inhibition of human NCI-H1975 cell growth in a cell viability assay.

NCI-H1993 = experiment: cells; assay type: functional, cell-based, Homo sapiens;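 also: growth inhibition of the cancer cell line, assessed with a cell viability assay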
Description: SANGER: Inhibition of human NCI-H1993 cell growth in a cell viability assay.

NCI-H2009 = experiment: cells; assay type: functional, cell-based, Homo sapiens;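 also: cell viability assay measuring inhibition of NCI-H2009 cell growth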
Description: SANGER: Inhibition of human NCI-H2009 cell growth in a cell viability assay.

NCI-H2170 = experiment: cells; assay type: functional, cell-based, Homo sapiens;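 also: cell viability assay measuring growth inhibition of human NCI-H2170 cancer cells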
Description: SANGER: Inhibition of human NCI-H2170 cell growth in a cell viability assay.

P12-Ichikawa = experiment: cells; assay type: functional, cell-based, Homo sapiens
RH-18 = experiment: cells; assay type: functional, cell-based, Homo sapiens;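 also: growth inhibition of human RH-18 cells, read out with a cell viability assay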
Description: SANGER: Inhibition of human RH-18 cell growth in a cell viability assay.

SW900 = experiment: cells; assay type: functional, cell-based, Homo sapiens;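 also: IC50 is the concentration that inhibits SW900 cell growth, measured by a cell viability assay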
Description: SANGER: Inhibition of human SW900 cell growth in a cell viability assay.

BALL-1 = experiment: cells; assay type: functional, cell-based, Homo sapiens;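 also: growth inhibition of BALL-1 cells, read out with a cell viability assay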
Description: SANGER: Inhibition of human BALL-1 cell growth in a cell viability assay.

C3A = experiment: cells; assay type: functional, cell-based, Homo sapiens;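 also: growth inhibition of C3A human cells, quantified with a cell viability readout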
Description: SANGER: Inhibition of human C3A cell growth in a cell viability assay.

CAL-85-1 = experiment: cells; assay type: functional, cell-based, Homo sapiens;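 also: growth inhibition of human CAL-85-1 cells, read out with a cell viability assay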
Description: SANGER: Inhibition of human CAL-85-1 cell growth in a cell viability assay.

TI-73 = experiment: cells; assay type: functional, cell-based, Homo sapiens;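 also: cell viability assay measuring how much compounds suppress growth of the cultured cell line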
Description: SANGER: Inhibition of human TI-73 cell growth in a cell viability assay.

TYK-nu = experiment: cells; assay type: functional, cell-based, Homo sapiens;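 also: growth inhibition of human TYK-nu cells, read out by a cell viability assay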
Description: SANGER: Inhibition of human TYK-nu cell growth in a cell viability assay.

UMC-11 = experiment: cells; assay type: functional, cell-based, Homo sapiens;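 also: growth inhibition of UMC-11 cells, read out with a cell viability assay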
Description: SANGER: Inhibition of human UMC-11 cell growth in a cell viability assay.

YAPC = experiment: cells; assay type: functional, cell-based, Homo sapiens;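 also: growth inhibition of YAPC cells, measured with a cell viability assay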
Description: SANGER: Inhibition of human YAPC cell growth in a cell viability assay.

`CC(=O)O[C@H]1C(=O)[C@@]2(C)[C@H]([C@H](OC(=O)c3ccccc3)[C@]3(O)C[C@H](OC(=O)[C@H](O)[C@@H](NC(=O)c4ccccc4)c4ccccc4)C(C)=C1C3(C)C)[C@]1(OC(C)=O)CO[C@@H]1C[C@@H]2O` [PACLITAXEL] gave a pIC50 (CP67-MEL) of 7.17, a pIC50 (KP-N-RT-BM-1) of under 6.99 and a pIC50 (L-540) of 7.33. The pIC50 (LC-1F) was under 6.99, the pIC50 (NB7; Homo sapiens, NB7) was under 6.99 and the pIC50 (NCI-H1436) was 7.91. The pIC50 (SKM-1) was under 6.99, the pIC50 (ST486) was 7.92 and the pIC50 (CESS) was 8.13.
`Nc1cccc2c1CN(C1CCC(=O)NC1=O)C2=O` (centres undefined) [LENALIDOMIDE] showed a pIC50 (DK-MG; Homo sapiens, DK-MG) of under 5.30, a pIC50 (Detroit 562; Homo sapiens, Detroit 562) of under 5.30 and a pIC50 (DoTc2-4510; Homo sapiens, DoTc2-4510) of under 5.30. The pIC50 (EFO-21; Homo sapiens, EFO-21) was under 5.30, the pIC50 (EPLC-272H; Homo sapiens, EPLC-272H) was under 5.30 and the pIC50 (H9; Homo sapiens, H9) was under 5.30. For the same compound, the pIC50 (HEC-1; Homo sapiens, HEC-1) was under 5.30, the pIC50 (HGC-27; Homo sapiens, HGC-27) was under 5.30 and the pIC50 (HSC-3; Homo sapiens, HSC-3) was under 5.30. It also gave a pIC50 (J82; Homo sapiens, J82) of under 5.30, a pIC50 (KYSE-140; Homo sapiens, KYSE-140) of under 5.30 and a pIC50 (MIA PaCa-2; Homo sapiens, MIA PaCa-2) of under 5.30. It also gave a pIC50 (MeWo; Homo sapiens, MeWo) of under 5.30, a pIC50 (NB7; Homo sapiens, NB7) of under 5.30 and a pIC50 (NCI-H1693; Homo sapiens, NCI-H1693) of under 5.30. The pIC50 (NCI-H1792; Homo sapiens, NCI-H1792) was under 5.30, the pIC50 (NCI-H1975; Homo sapiens, NCI-H1975) was under 5.30 and the pIC50 (NCI-H1993; Homo sapiens, NCI-H1993) was under 5.30. The pIC50 (NCI-H2009; Homo sapiens, NCI-H2009) was under 5.30, the pIC50 (NCI-H2170; Homo sapiens, NCI-H2170) was under 5.30 and the pIC50 (P12-Ichikawa; Homo sapiens, P12-Ichikawa) was under 5.30. It also gave a pIC50 (RH-18; Homo sapiens, Rh18) of under 5.30, a pIC50 (SW900; Homo sapiens, SW900) of under 5.30 and a pIC50 (BALL-1; Homo sapiens, BALL-1) of under 5.30. For the same compound, the pIC50 (C3A; Homo sapiens, C3A) was under 5.30, the pIC50 (CAL-85-1; Homo sapiens, CAL-85-1) was under 5.30 and the pIC50 (TI-73; Homo sapiens, TI-73) was under 5.30. For the same compound, the pIC50 (TYK-nu; Homo sapiens, TYK-nu) was under 5.30, the pIC50 (UMC-11; Homo sapiens, UMC-11) was under 5.30 and the pIC50 (YAPC; Homo sapiens, YAPC) was under 5.30.
For `Cc1cn(-c2cc(NC(=O)c3ccc(C)c(Nc4nccc(-c5cccnc5)n4)c3)cc(C(F)(F)F)c2)cn1` [NILOTINIB], the pIC50 (DK-MG; Homo sapiens, DK-MG) was under 5.70, the pIC50 (Detroit 562; Homo sapiens, Detroit 562) was under 5.70 and the pIC50 (DoTc2-4510; Homo sapiens, DoTc2-4510) was under 5.70. The pIC50 (EFO-21; Homo sapiens, EFO-21) was under 5.70, the pIC50 (EPLC-272H; Homo sapiens, EPLC-272H) was under 5.70 and the pIC50 (H9; Homo sapiens, H9) was under 5.70. The pIC50 (HEC-1; Homo sapiens, HEC-1) was under 5.70, the pIC50 (HGC-27; Homo sapiens, HGC-27) was under 5.70 and the pIC50 (HSC-3; Homo sapiens, HSC-3) was under 5.70. The pIC50 (J82; Homo sapiens, J82) was under 5.70, the pIC50 (KYSE-140; Homo sapiens, KYSE-140) was under 5.70 and the pIC50 (MIA PaCa-2; Homo sapiens, MIA PaCa-2) was under 5.70. It also gave a pIC50 (MeWo; Homo sapiens, MeWo) of under 5.70, a pIC50 (NB7; Homo sapiens, NB7) of 6.87 and a pIC50 (NCI-H1693; Homo sapiens, NCI-H1693) of under 5.70. It also gave a pIC50 (NCI-H1792; Homo sapiens, NCI-H1792) of under 5.70, a pIC50 (NCI-H1975; Homo sapiens, NCI-H1975) of under 5.70 and a pIC50 (NCI-H1993; Homo sapiens, NCI-H1993) of under 5.70. It also gave a pIC50 (NCI-H2009; Homo sapiens, NCI-H2009) of under 5.70, a pIC50 (NCI-H2170; Homo sapiens, NCI-H2170) of under 5.70 and a pIC50 (P12-Ichikawa; Homo sapiens, P12-Ichikawa) of under 5.70. It also gave a pIC50 (RH-18; Homo sapiens, Rh18) of under 5.70, a pIC50 (SW900; Homo sapiens, SW900) of under 5.70 and a pIC50 (BALL-1; Homo sapiens, BALL-1) of under 5.70. It also gave a pIC50 (C3A; Homo sapiens, C3A) of under 5.70, a pIC50 (CAL-85-1; Homo sapiens, CAL-85-1) of under 5.70 and a pIC50 (TI-73; Homo sapiens, TI-73) of under 5.70. The pIC50 (TYK-nu; Homo sapiens, TYK-nu) was under 5.70, the pIC50 (UMC-11; Homo sapiens, UMC-11) was under 5.70 and the pIC50 (YAPC; Homo sapiens, YAPC) was under 5.70.
With CISPLATIN the pIC50 (DK-MG; dk-mg) was 3.86, the pIC50 (Detroit 562; detroit 562) was 4.42 and the pIC50 (DoTc2-4510; dotc2-4510) was 4.20. The pIC50 (EFO-21; efo-21) was 4.47, the pIC50 (EPLC-272H; eplc-272h) was 4.88 and the pIC50 (H9; h9) was 5.44. For the same compound, the pIC50 (HEC-1; hec-1) was 4.88, the pIC50 (HGC-27; hgc-27) was 5.18 and the pIC50 (HSC-3; hsc-3) was 4.66. The pIC50 (J82; j82) was 5.29, the pIC50 (KYSE-140; kyse-140) was 5.12 and the pIC50 (MIA PaCa-2; mia paca-2) was 5.27. It also gave a pIC50 (MeWo; mewo) of 4.78, a pIC50 (NB7; nb7) of 4.81 and a pIC50 (NCI-H1693; nci-h1693) of 3.91. The pIC50 (NCI-H1792; nci-h1792) was 4.83, the pIC50 (NCI-H1975; nci-h1975) was 3.39 and the pIC50 (NCI-H1993; nci-h1993) was 2.87. For the same compound, the pIC50 (NCI-H2009; nci-h2009) was 3.30, the pIC50 (NCI-H2170; nci-h2170) was 4.64 and the pIC50 (P12-Ichikawa; p12-ichikawa) was 5.69. For the same compound, the pIC50 (RH-18; rh-18) was 3.45, the pIC50 (SW900; sw900) was 4.54 and the pIC50 (BALL-1; ball-1) was 4.12. It also gave a pIC50 (C3A; c3a) of 3.39, a pIC50 (CAL-85-1; cal-85-1) of 3.14 and a pIC50 (TI-73; ti-73) of 5.07. It also gave a pIC50 (TYK-nu; tyk-nu) of 4.80, a pIC50 (UMC-11; umc-11) of 3.04 and a pIC50 (YAPC; yapc) of 2.93.
